How the values were obtained:
[1] = target: T1, human cathepsin L (Homo sapiens, UniProt P07711); assay: Enzyme assay, human cathepsin L; assay type: biochemical; conditions: geometric mean
T1 construct: purchased Calbiochem
From the text: Recombinant cathepsin K enzymes from all species were expressed in E. coli, purified and activated. Human cathepsin F and cathepsin S were expressed in Baculovirus, purified and activated. Purified human cathepsins B and H (Athens Research Technology), cathepsin L (Calbiochem), and cathepsin V (R & D Systems) were purchased.
H-D-Ala_Leu-Lys-AMC was used as the substrate in assays of cathepsin K from non-rodent species (human, dog, rabbit and guinea pig), and Z-Leu-Arg-AMC was used as the substrate in assays of cathepsin K from rodent species (mouse and rat). […]
Assays were carried out in white polystyrene 96-well plates in a final volume of 100 µL. […] Plates were read in a Fluoroskan Ascent (Thermo Labsystems, Helsinki, Finland) in kinetic mode, with excitation and emission filters of 390 and 460 nm, respectively. Rates were determined by linear regression of the fluorescence/time data in Excel. Rates were fitted by non-linear regression to either the competitive inhibition equation, with the substrate concentration fixed at the value in the assay and the KM fixed to the value previously determined, or the IC50 equation using GraphPad Prism (GraphPad, version 6, San Diego, USA) to obtain Ki or IC50 values, respectively.

[2] = system: plasma CTX-I; assay: Monkey plasma CTX-I, repeat oral doses; assay type: in vivo, cynomolgus monkeys (Macaca fascicularis)
Method: Repeat dosing experiments were performed in four male monkeys from the group outlined above (Covance). Vehicle or MIV-711 (30 µmol/kg) was given via oral gavage once daily for 5 days between 7:30 and 8:30 a.m. Plasma for CTX-I measurements was collected on Day 1 at baseline, 1, 2, 4, 8 and 12 h after dose, on Days 2, 3 and 4 early in the morning before next dose (i.e. at trough), and on Day 5 at trough, 1, 2, 4, 8, 12 and 24 h after dose. [drawing 2]
The quantification of CTX-I in monkey plasma samples and human serum samples was performed using a commercially available kit (Serum CrossLaps ELISA, IDS Nordic, Herlev, Denmark). The levels of CTX-I in monkey urine samples were measured using a commercially available kit (Urine BETA CrossLaps ELISA, IDS Nordic). The quantification of NTX-I in monkey samples was performed using a commercially available kit (Osteomark NTx Urine, Wampole Laboratories, Inc, Princeton, USA). Urinary levels of CTX-II in monkey samples were measured using a commercially available kit (Urine CrossLaps EIA, IDS Nordic). The concentrations of biomarkers in the urine samples were corrected for creatinine concentrations. The creatinine levels in urine were determined at Swedish University of Agricultural Sciences, using the enzymatic assay (cat no. 8L24-01) on the Abbott system Architect c4000.

[3] = system: urine CTX-I; assay: Monkey urine CTX-I, multiple doses; assay type: in vivo, cynomolgus monkeys (Macaca fascicularis)
Method: Biomarkers such as NTX-I (bone resorption) and CTX-II (cartilage degradation) are typically measured in urine. Additional experiments in which urine was collected were therefore performed. In these experiments, four cynomolgus monkeys (Macaca fascicularis) were used (Aptuit, Edinburgh, UK). The animals were healthy young females weighing 3.5–4 kg. Animals were dosed with vehicle or MIV-711 via oral gavage at a dose volume of 5 mL/kg between 7:30 and 8:30 a.m. Animals first received vehicle via oral gavage for five consecutive days. After a washout period, the animals then received MIV-711 (30 µmol/kg) via oral gavage for five consecutive days.
Urine was collected between 8–12 a.m., 12 a.m.–4 p.m. and 4 p.m.–8 a.m. on Day 1 and Day 5 of respective treatment. Biomarkers were measured in each urine sample, corrected for creatinine, and the mean value of the three samples on Day 1 and Day 5 was calculated. The effect of MIV-711 was evaluated by comparing biomarkers in urine samples collected on Day 1 and Day 5 with respective vehicle sample. [drawing 3]
The quantification of CTX-I in monkey plasma samples and human serum samples was performed using a commercially available kit (Serum CrossLaps ELISA, IDS Nordic, Herlev, Denmark). The levels of CTX-I in monkey urine samples were measured using a commercially available kit (Urine BETA CrossLaps ELISA, IDS Nordic). […]

[4] = 30 µmol/kg p.o. once daily, Day 5

T1 sequence (P07711 114-333): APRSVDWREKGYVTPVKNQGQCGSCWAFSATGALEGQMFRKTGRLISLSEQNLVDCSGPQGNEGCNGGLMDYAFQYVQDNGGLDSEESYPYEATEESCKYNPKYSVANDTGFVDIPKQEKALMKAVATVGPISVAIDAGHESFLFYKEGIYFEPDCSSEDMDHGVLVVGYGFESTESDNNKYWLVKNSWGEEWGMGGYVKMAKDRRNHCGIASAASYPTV

Question: How did the Ki [1] turn out when `C#C[C@@H]1CN(C(=O)[C@H](CC(C)C)NC(=O)c2ccc(-c3nc(N4CCN(C)CC4)sc3F)cc2)[C@@H]2C(=O)CO[C@H]12` [MIV-711] was run?
Answer: 1700 nM

Question: And the “Maximum reduction of plasma CTX-I from baseline” value ([2]; 30 µmol/kg p.o. once daily, Day 1, 12 h post dose)?
Answer: 76%

Question: And the “Maximal reduction of plasma CTX-I vs initial baseline” value [2, 4]?
Answer: 67%

Question: What about the “Trough plasma CTX-I lower than baseline” value [2, 4] of the same molecule?
Answer: 38%

Question: And the “Trough plasma CTX-I lower than baseline” value ([2]; 30 µmol/kg p.o., after the first dose on Day 1)?
Answer: 48%

Question: What about the “Reduction of urinary CTX-I compared to vehicle” value ([3]; 30 µmol/kg p.o. once daily for 5 days, creatinine-corrected) of the same molecule?
Answer: 93%

Question: And the “Effect on urinary CTX-I compared to vehicle” value ([3]; single dose 30 µmol/kg p.o. (Day 1))?
Answer: immediately reduced
